From patent publication US20040152745A1, “Dipeptidyl peptidase IV inhibitors and methods of making and using dipeptidyl peptidase IV inhibitors” (Guilford Pharmaceuticals, Inc., priority 1999, published 2004)

Tested on: organotypic spinal motor neurons
Experiment: organotypic spinal motor neuron / THA neuroprotection assay
Format: cell-based, Sprague-Dawley rat
Conditions: exposure of neurons with THA alone
Method: Each experiment consists of two 6-well plates with 5 slices from 4 different animals per well. Media changes are performed every 3 to 4 days. Cultures are treated with THA [L(−)-threo-3-hydroxyaspartic acid; Tocris Cookson Inc., Ballwin, Mo.] at 200 μM+compound (10 μM) after one week in culture. The control is an untreated sample with 0.1% DMSO as vehicle. The THA control is a THA treated sample with 0.1% DSMO as vehicle. Two wells are used per condition. One media change with new THA and compounds is performed. The experiment is stopped 6 to 8 days following drug treatment (13-15 total days in vitro, DIV) as dictated by visual assessment of lesion, by fixation with 4% paraformaldehyde/0.1 M phosphate buffer for 30 minutes. Slices are permeabilized with 100% cold methanol for 10 minutes. Slices are transferred to staining wells. […]
Quantification of surviving neurons is performed on a Ziess Axiovert microscope. Neuronal survival is determined by observing an intact neuronal cell body with processes located ventrally of the central canal in each hemisphere. […] Each hemisphere is counted individually. The statistics can be performed with StatView software on a minimum of three different experiments per condition and significance should be determined as compared to THA control. The percent of protection can be determined from the average number of living neurons by the following equation: […]

## N[C@H](C(=O)O)[C@H](O)C(=O)O [THA, L(−)-threo-3-hydroxyaspartic acid]
  death of the neurons: 55-60%
